The values below come from article PMC11637823, “Evaluating the Antimicrobial Efficacy of a Designed Synthetic Peptide against Pathogenic Bacteria” (Journal of Microbiology and Biotechnology, 2024).

Converted amounts (≈) assume the structure as drawn. Ends that are not written are not given here.

The test system of data set [1] is A. baumannii biofilm (IC 003321216). Nature of the data set: Mature biofilm eradication, MTT viability. The settings on record: ciprofloxacin alone.
The test system of data set [2] is Gram-negative bacteria. Nature of the data set: MIC and MBC assays, span over strains. Type of data set: cell-based. On the procedure:
(§1) Clinical and Laboratory Standards Institute (CLSI) guidelines performed the peptide MIC assays. Bacterial colonies were isolated on the Muller Hinton Agar (MHA) and plated at a final concentration of 1.5 × 10^5 CFU/ml.
(§2) For the results, bacterial growth was determined by visual inspection and confirmed by absorbance measurement at 595 nm after 24 h of incubation using a Multiskan GO microplate reader (Thermo Fisher Scientific, USA). […] The rest of the assay was conducted as previously described.
(§3) The MBC was determined based on the MIC results. Three replicates of 10 μl were extracted from the microplate wells, placed on MHA, and then kept in an incubator at 37°C for 24 h. […] All experiments were performed in triplicate.

Data set [3] concerns Staphylococcus saprophyticus ATCC 29970. Nature of the data set: microbe, parasite or virus in culture. On the procedure: as §1, §2, §3
Data set [4] deals with Escherichia coli KPC+ 001812446. Briefly: microbe, parasite or virus in culture. On the procedure:
as §1, §2, §3

Data set [5] deals with Staphylococcus aureus (MRSA) ATCC 33591. Nature of the data set: microbe, parasite or virus in culture. On the procedure: as §1, §2, §3
Data set [6] concerns Staphylococcus aureus (MRSA) ATCC 43300. Briefly: microbe, parasite or virus in culture. On the procedure:
as §1, §2, §3

The test system of data set [7] is Pseudomonas aeruginosa ATCC 27853. Briefly: microbe, parasite or virus in culture. On the procedure: as §1, §2, §3
Data set [8] relates to E. coli. Further details: method as in PMID 16352849. To be noted: cited from earlier work.
The subject of data set [9] is ESKAPE pathogens. The settings on record: at one-third of the MIC; cited from earlier work. The text has this:
A. baumannii, known for colonising medical equipment surfaces like urinary catheters to form a biofilm, contributes to recurrent and persistent patient infections. WLBU-2, a synthetic cationic peptide, and LL-37, a naturally occurring antimicrobial peptide, underwent testing for efficacy against a range ...

Data set [10] deals with human erythrocytes. Type of data set: cell-based. To be noted: 100 µM. The procedure: Hemolytic activity. As hemolysis is an effect widely observed among antimicrobial peptides, we investigated the RK8 peptide hemolytic activity based on the protocol proposed by Uggerhøj et al. using erythrocytes. The blood sample (1 ml) was washed three times with 3 ml of saline solution through centrifugation cycles of 8 min at 1,380 ×g to secure a concentrated solution of erythrocytes. […] The samples were incubated for 60 min at 37°C and sequentially centrifuged for 10 min at 2,455 ×g. Subsequently, 100 μl of the supernatant was transferred to 96-well microplate wells in triplicate. The free haemoglobin content was determined at 414 nm on a Multiskan GO microplate reader (Thermo Fisher Scientific).

Data set [11] relates to Escherichia coli ATCC 35218. To be noted: ATCC 35218, 24 h. On the procedure:
as §1, §2, §3

For data set [12], the system named is Acinetobacter baumannii IC 003321216. To be noted: IC 003321216, 24 h. On the procedure: as §1, §2, §3
For data set [13], the system named is Klebsiella pneumoniae ATCC 700603. The settings on record: ATCC 700603, 24 h. On the procedure:
as §1, §2, §3

The test system of data set [14] is Acinetobacter baumannii ATCC 19906. To be noted: ATCC 19906, 24 h. On the procedure:
as §1, §2, §3

Data set [15] in a line: in vitro. On the procedure:
The mixture was maintained at 30°C. Aliquots of 150 μl were collected after 0, 15, 30, 45, 60, and 120 min, mixed with ten μl of Trifluoroacetic Acid (TFA) and centrifuged at 14 000 rpm at 4°C for 10 min [19]. High-Performance Liquid Chromatography (HPLC) monitored the stability of the peptide using the C-18 reversed-phase hydrophobic column (μ Bondapak C18, 3.9 × 300 mm, Waters, USA) at 25°C. The peptide's remaining percentage during degradation kinetics was calculated by integrating the peak area corresponding to the RK8 peptide, injecting 40 μl of the incubation product in triplicate. The assay was conducted in an Ultimate 3000 chromatograph (Thermo Fisher Scientific). A separation program of 60 min at 1 ml/min was implemented, with monitoring of the 220 and 280 nm wavelengths. Thermo Scientific's ChromeleonTM Chromatography Data System (CDS) 7 software determined the area under the curve.

Data set [16] relates to RAW 264.7 murine macrophages. To be noted: 64 µM.
Procedure: Cellular viability. RAW 264.7 murine macrophages' cellular viability was evaluated in the presence of the RK8 peptide, according to the method proposed by Mosmann [18], using the enzymatic reduction of the reagent 3-(4,5-dimethylthiazol-2-yl bromide) -2,5-diphenyltetrazolium (MTT).
After detaching from the culture bottle, their density was determined, and they were seeded in a 96-well microplate at a density of 6 × 10^3 cells per well. After being placed in microplates, the cells were incubated for 24 h. The culture medium was replaced with a DMEM culture medium lacking SFB supplementation. Instead, it contained a serial dilution of RK8 ranging from 1 to 64 μM. After 24 h, the medium containing RK8 was removed and replaced with 100 μl of DMEM medium containing MTT 0.5 mg/ml. After four hours of incubation, the medium was removed again, and the reduced formazan crystals were resuspended with the addition of 100 μl of DMSO. Then, the absorbance of the wells was determined at 630 nm in a Varioskan microplate reader (Thermo Fisher Scientific). Three independent experiments were performed in triplicate. Cell viability was calculated from the following formula:
Cell viability (%) = (AbsSample÷AbsNegative control) × 100
Data set [17] has as its system E. coli, P. aeruginosa, and A. baumanii. The settings on record: 24 h.
Where [18] appears, read: Staphylococcus saprophyticus, ATCC29970, 24 h.

For `O=C(O)c1cn(C2CC2)c2cc(N3CCNCC3)c(F)cc2c1=O` [Ciprofloxacin, ciprofloxacin], in [1], the impact on biofilm result is “no impact”.
Take `CN[C@H](CC(C)C)C(=O)N[C@H]1C(=O)N[C@@H](CC(N)=O)C(=O)N[C@H]2C(=O)N[C@H]3C(=O)N[C@H](C(=O)N[C@H](C(=O)O)c4cc(O)cc(O)c4-c4cc3ccc4O)[C@H](O)c3ccc(c(Cl)c3)Oc3cc2cc(c3O[C@@H]2O[C@H](CO)[C@@H](O)[C@H](O)[C@H]2O[C@H]2C[C@](C)(N)[C@H](O)[C@H](C)O2)Oc2ccc(cc2Cl)[C@H]1O` [Vancomycin, vancomycin, reference compound]: the MBC in [2] (read-out: MBC values) is 0.5 to 4 µM (≈ 0.725 to 5.8 µg/mL); in data set [3] (10 μl from MIC wells on MHA, 37°C, 24 h, triplicate) it was “one”; in data set [3] (setting [18]), 1 µM (≈ 1.45 µg/mL); in data set [4] (Escherichia coli, 24 h) it was 0.5 µM (≈ 0.725 µg/mL); in [5] (Staphylococcus aureus, 24 h) it was 1 µM (≈ 1.45 µg/mL); in data set [6] (Staphylococcus aureus, ATCC43300|MRSA, 24 h, 10 μl from MIC wells on MHA, 37°C, triplicate) it was 1 µM (≈ 1.45 µg/mL). For the same compound, in [7] (Pseudomonas aeruginosa, ATCC27853, 24 h), the MBC was 1 µM (≈ 1.45 µg/mL). In addition, the MIC in data set [2] (span over Gram-negative strains, 1.5 × 10^5 CFU per ml) was 0.5 to 8 µM (≈ 0.725 to 11.6 µg/mL); in data set [3] (setting [18]), 0.5 µM (≈ 0.725 µg/mL); in [4] (Escherichia coli, 24 h), 0.5 µM (≈ 0.725 µg/mL).
Consider Indolicidin, for which, in data set [8], the MIC was 10 µM.
Consider LL-37, for which the “inhibition of biofilm formation” value in data set [9] is given as 90%.
The term share remaining denotes the share of the starting amount still present when the sample was taken. Read a high share remaining as less turnover. In general, cell viability refers to the share of living cells, or the viability signal relative to a control. The low end stands for a greater loss of cells, the high end for better survival. As to RKWRKWWK [RK8], the hemolysis entry in data set [10] is given as “approximately 4.6%”. Also, the MBC in data set [11] came out at 2 µM; in [12] it was 4 µM; in data set [13], 64 µM; in [14], 4 µM; in data set [3] (ATCC 29970, 24 h) it was 64 µM; in data set [4] (KPC+ 001812446, 24 h) it was 8 µM. The MBC in data set [5] (ATCC 33591, 24 h) worked out at 8 µM; in [6] (ATCC 43300, 24 h) it was 8 µM; in data set [7] (ATCC 27853, 24 h) it was 64 µM. Moreover, the MIC is over 64 µM in data set [11]; 64 µM in [12]; over 64 µM in data set [13]; over 64 µM in data set [14]; over 64 µM in data set [3] (ATCC 29970, 24 h); 16 µM in data set [4] (KPC+ 001812446, 24 h). Besides, the MIC worked out at 8 µM in data set [5] (ATCC 33591, 24 h) and 16 µM in [6] (ATCC 43300, 24 h). Besides, the “decrease in the overall area” value in data set [15] (25% FBS in ultrapure water, 30°C, 120 min, RP-HPLC C18 peak area, triplicate) worked out at 40%. In data set [15] (25% FBS in ultrapure water, 30°C, first 45 min, RP-HPLC C18 peak area, triplicate), the “area under the RK8 peak (intact peptide)” value is “unaffected”. Also, in data set [15] (25% fetal bovine serum (FBS)), the metabolised at 1 h, 0.385 mg/ml came out at 12.2%. The same compound had an amount remaining at 2 h, 0.385 mg/ml in data set [15] (25% fetal bovine serum (FBS)) of about 60%. Moreover, the cell viability in data set [16] is listed as 90.1%. Besides, the “concentrations with bactericidal effect (consistent MIC and MBC values)” value in data set [17] was 0.5 to 4 µM.
